Where two headings read alike, the source gives them in different places.
Legend:
Bacillus subtilis 168 = assay: Bacterial growth in microscale cultivation, B. subtilis; type: cell-based; conditions: for activity at 0.3 µM / activity at 3 µM / activity at 30 µM / Lag Phase / activity at 8 µM / activity at 80 µM / activity at 800 µM / activity at 160 µM: relative to control
Protocol: (§1) The following bacteria were cultivated in the presence of trans-chalcone derived inhibitors: Corynebacterium glutamicum ATCC13032[43], Escherichia coli K-12 MG1655[44], Pseudomonas putida KT2440[45], and Bacillus subtilis 168[46]. The growth of these bacteria was monitored in flower-well plates shaken at 1200 rpm as backscatter at 620 nm (gain 20) using a BioLector® microscale cultivation system (m2p labs, Baesweiler, Germany). For further experimental details please refer to the Supplementary Information.
(§2) medium or the appropriate minimal medium and shaken at 140 rpm overnight. For inoculation of
(§3) the main culture, cells equivalent to an optical density at 600 nm of 0.5 (C. glutamicum, E. coli,
(§4) and P. putida) or 0.25 (B. subtilis) in 800 µL medium were washed and resuspended in fresh
(§5) media. Inhibitor substances were dissolved in DMSO and added to the media to a final
(§6) Since the least polar trans-chalcone and 2’-hydroxychalcone precipitated in the growth media at
(§7) the highest concentrations, the maximal concentration of these compounds was reduced to 400
(§8) µM and 100 µM, respectively. The final backscatter at 620 nm, the growth rate (h-1), and the
(§9) duration of the lag phase of all cultures were determined in a BioLector microscale cultivation
(§10) system in comparison to negative controls supplemented with the solvent DMSO. A longer lag

Amaranthus retroflexus = assay: In planta growth experiment, A. retroflexus; type: in vivo; conditions: shoots sprayed, 3 mM
Text: Seeds of Amaranthus retroflexus L. (Herbiseed, Twyford, UK) and Brassica napus L. cv. Mozart (Norddeutsche Pflanzenzucht Hans-Georg Lembke KG, Holtsee, Germany) were sown in vermiculite for germination. When cotyledons were fully expanded, seedlings were transplanted into plastic pots with a volume of 0.230 L filled with a substrate containing 50% bottom ash (0–4 mm), 30% peat and 20% pumice gravel (0–4 mm). Plants were watered every other day with 0.03% Hakaphos® Grün solution (Compo Expert GmbH, Münster, Germany) by sub-irrigation. Plants were grown in a climate chamber at 22 °C/20 °C day/night temperature and a day/night length of 16 h/8 h. Relative humidity was adjusted to 70% and light intensity was 320 μmol m^−2 s^−1 PAR (Photosynthetically Active Radiation) at plant level.
When seedlings reached the two-leaf growth stage, plant shoots were sprayed from the top with treatment solutions using spray bottles with a spraying angle of 35° (10 ml, neoLab Migge Laborbedarf-Vertriebs GmbH, Heidelberg, Germany). Treatment solutions were applied from a height of 8.5 cm above the pots. Each pot was sprayed once with a solution volume of 0.135 ml. Treatment solutions contained 2.4% (v/v) DMSO (dimethylsulfoxide, Duchefa Biochemie, Haarlem, the Netherlands), 0.1% (v/v) Tween® and the respective compound at a concentration of 3 mM. The control treatment contained 2.4% (v/v) DMSO, and 0.1% (v/v) Tween20. Further details are given in the Supplementary Information. […]
Experimental design and assessments of in planta experiments
We tested eleven compounds in a first experiment. In a follow-up experiment we tested selected […]
chalcone. Each treatment was repeated 12 times, except for oilseed rape in the second experiment (n=10). Pots were arranged in the growth chamber according to a fully randomized design. Initial growth of the second leaf of A. retroflexus plants was monitored by aquiring images of each plant from above from day zero to day two after treatment. Images were taken […]
from a fixed distance at 90° view angle using the camera Canon EOS 70D equipped with a Canon EF 14 mm/2.8 L II USM lens. Leaf area of single leaves was measured using the ImageJ software31, by drawing the leaf contours using a drawing tablet (Cintiq 22HD, Wacom Europe GmbH, Krefeld, Germany). Conversion of pixel to cm was achieved by using a target of known size inside the image. Six days after the treatment, half of the plants were harvested. Leaf area was assessed using a leaf area meter (LI3100C Area Meter, LI-Cor, Lincoln, Nebraska, USA) and samples were oven-dried at 65°C for seven days to obtain dry weight . Thirteen days after the treatment, this procedure was repeated with the second half of plants.
Chlorophyll fluorescence measurements […]
6 mm leaf discs were cut out of the second leaf and immediately placed into 96-well-plates filled with 300 µL 0.125 % Hoagland’s solution with 1 mM MES-KOH (MES-monohydrate, Merck, Darmstadt, Germany) buffered to a pH of 6.5. The treatment solution contained 1.6 % (v/v) DMSO, 0.1 % (v/v) Tween® 20 and 2',3',4',3,4-Pentahydroxychalcone at a concentration of 2 mM. The control treatment contained 1.6 % (v/v) DMSO, 0.1 % (v/v) Tween® 20. Each leaf disc was treated with 1.5 µL solution placed on top of the leaf discs. Plates were sealed with Parafilm and placed into a climate cabinet with 12h/12h day/night-length and a temperature of 22°C at a light intensity of 130 µmol m-2 s-1. 96 hours after treatment, chlorophyll fluorescence measurements were performed on leaf discs using an Imaging PAM M-Series fluorescence camera (Heinz Walz GmbH, Effeltrich, Germany). Leaf discs were dark adapted for 30 minutes, minimum and maximum chlorophyll fluorescence were obtained and leaf discs were illuminated for 30 minutes

[1] = system: Escherichia coli K-12 MG1655; assay: Bacterial growth in microscale cultivation, E. coli; type: cell-based; conditions: relative to control; for activity at 0.3 µM / activity at 3 µM / activity at 30 µM / activity at 8 µM / activity at 80 µM / activity at 800 µM: Escherichia coli
Protocol: as §1, §2, §3, §4, §5, §6, §7, §8, §9, §10

O=C(/C=C/c1ccc(O)c(O)c1)c1c(O)cc(O)cc1O [Compound 11, 2′,4′,6′,3,4-Pentahydroxy-chalcone]
activity at 0.3 µM (Bacillus subtilis 168; Bacillus subtilis, 168, complex medium, 0.3 µM, read-out: Final Backscatter): 97.4%
activity at 0.3 µM (Bacillus subtilis 168; Bacillus subtilis, 168, complex medium, 0.3 µM, read-out: Growth rate): 106%
activity at 3 µM (Bacillus subtilis 168; Bacillus subtilis, 168, complex medium, 3 µM, read-out: Final Backscatter): 96.5%
activity at 3 µM (Bacillus subtilis 168; Bacillus subtilis, 168, complex medium, 3 µM, read-out: Growth rate): 106%
activity at 30 µM (Bacillus subtilis 168; Bacillus subtilis, 168, complex medium, 30 µM, read-out: Final Backscatter): 97.1%
activity at 30 µM (Bacillus subtilis 168; Bacillus subtilis, 168, complex medium, 30 µM, read-out: Growth rate): 97.8%
activity at 0.3 µM (Bacillus subtilis 168; Bacillus subtilis, 168, minimal medium, 0.3 µM, read-out: Final Backscatter): 97.2%
activity at 0.3 µM (Bacillus subtilis 168; Bacillus subtilis, 168, minimal medium, 0.3 µM, read-out: Growth rate): 114%
activity at 3 µM (Bacillus subtilis 168; Bacillus subtilis, 168, minimal medium, 3 µM, read-out: Final Backscatter): 98.7%
activity at 3 µM (Bacillus subtilis 168; Bacillus subtilis, 168, minimal medium, 3 µM, read-out: Growth rate): 107%
activity at 30 µM (Bacillus subtilis 168; Bacillus subtilis, 168, minimal medium, 30 µM, read-out: Final Backscatter): 103%
activity at 30 µM (Bacillus subtilis 168; Bacillus subtilis, 168, minimal medium, 30 µM, read-out: Growth rate): 103%
Lag Phase (Bacillus subtilis 168; complex medium, 0.3 µM): 100,0%
Lag Phase (Bacillus subtilis 168; complex medium, 3 µM): 100,0%
Lag Phase (Bacillus subtilis 168; complex medium, 30 µM): 100,0%
Lag Phase (Bacillus subtilis 168; minimal medium, 0.3 µM): 100,0%
Lag Phase (Bacillus subtilis 168; minimal medium, 3 µM): 101,1%
Lag Phase (Bacillus subtilis 168; minimal medium, 30 µM): 100,0%
Influence on plants (Amaranthus retroflexus): No
activity at 0.3 µM ([1]; MG1655, complex medium, 0.3 µM, read-out: Final Backscatter): 98%
activity at 0.3 µM ([1]; MG1655, complex medium, 0.3 µM, read-out: Growth rate): 104%
activity at 3 µM ([1]; MG1655, complex medium, 3 µM, read-out: Final Backscatter): 98.1%
activity at 3 µM ([1]; MG1655, complex medium, 3 µM, read-out: Growth rate): 106%
activity at 30 µM ([1]; MG1655, complex medium, 30 µM, read-out: Final Backscatter): 96.9%
activity at 30 µM ([1]; MG1655, complex medium, 30 µM, read-out: Growth rate): 104%
activity at 0.3 µM ([1]; MG1655, minimal medium, 0.3 µM, read-out: Final Backscatter): 98%
activity at 0.3 µM ([1]; MG1655, minimal medium, 0.3 µM, read-out: Growth rate): 107%
activity at 3 µM ([1]; MG1655, minimal medium, 3 µM, read-out: Final Backscatter): 98.7%
activity at 3 µM ([1]; MG1655, minimal medium, 3 µM, read-out: Growth rate): 109%
activity at 30 µM ([1]; MG1655, minimal medium, 30 µM, read-out: Final Backscatter): 97.9%
activity at 30 µM ([1]; MG1655, minimal medium, 30 µM, read-out: Growth rate): 107%
Lag Phase ([1]; complex medium, 0.3 µM): 107,1%
Lag Phase ([1]; complex medium, 3 µM): 107,1%
Lag Phase ([1]; complex medium, 30 µM): 107,1%
Lag Phase ([1]; minimal medium, 0.3 µM): 103,4%
Lag Phase ([1]; minimal medium, 3 µM): 101,7%
Lag Phase ([1]; minimal medium, 30 µM): 103,4%

O=C(/C=C/c1ccccc1)c1ccccc1 [Compound 1, trans-Chalcone]
activity at 8 µM (Bacillus subtilis 168; Bacillus subtilis, 168, complex medium, 8 µM, read-out: Final Backscatter): 95.4%
activity at 8 µM (Bacillus subtilis 168; Bacillus subtilis, 168, complex medium, 8 µM, read-out: Growth rate): 115%
activity at 80 µM (Bacillus subtilis 168; Bacillus subtilis, 168, complex medium, 80 µM, read-out: Final Backscatter): 99%
activity at 80 µM (Bacillus subtilis 168; Bacillus subtilis, 168, complex medium, 80 µM, read-out: Growth rate): 119%
activity at 800 µM (Bacillus subtilis 168; Bacillus subtilis, 168, complex medium, 800 µM, read-out: Final Backscatter): 103%
activity at 800 µM (Bacillus subtilis 168; Bacillus subtilis, 168, complex medium, 800 µM, read-out: Growth rate): 130%
activity at 8 µM (Bacillus subtilis 168; Bacillus subtilis, 168, minimal medium, 8 µM, read-out: Final Backscatter): 89.6%
activity at 8 µM (Bacillus subtilis 168; Bacillus subtilis, 168, minimal medium, 8 µM, read-out: Growth rate): 118%
activity at 80 µM (Bacillus subtilis 168; Bacillus subtilis, 168, minimal medium, 80 µM, read-out: Final Backscatter): 88.8%
activity at 80 µM (Bacillus subtilis 168; Bacillus subtilis, 168, minimal medium, 80 µM, read-out: Growth rate): 105%
activity at 160 µM (Bacillus subtilis 168; Bacillus subtilis, 168, minimal medium, 160 µM, read-out: Final Backscatter): 89.5%
activity at 160 µM (Bacillus subtilis 168; Bacillus subtilis, 168, minimal medium, 160 µM, read-out: Growth rate): 97.3%
activity at 800 µM (Bacillus subtilis 168; Bacillus subtilis, 168, minimal medium, 800 µM, read-out: Final Backscatter): 83.6%
activity at 800 µM (Bacillus subtilis 168; Bacillus subtilis, 168, minimal medium, 800 µM, read-out: Growth rate): 93.3%
Influence on bacterial growth (Bacillus subtilis 168; Minimal medium, highest concentration tested (10× IC50) if not stated otherwise): lag↑ (2× IC50)
Lag Phase (Bacillus subtilis 168; complex medium, 8 µM): 103,5%
Lag Phase (Bacillus subtilis 168; complex medium, 80 µM): 103,5%
Lag Phase (Bacillus subtilis 168; complex medium, 800 µM): 101,2%
Lag Phase (Bacillus subtilis 168; minimal medium, 8 µM): 111,6%
Lag Phase (Bacillus subtilis 168; minimal medium, 80 µM): 109,9%
Lag Phase (Bacillus subtilis 168; minimal medium, 160 µM): 110,6%
Lag Phase (Bacillus subtilis 168; minimal medium, 800 µM): 121,3%
Influence on plants (Amaranthus retroflexus): No
activity at 8 µM ([1]; MG1655, complex medium, 8 µM, read-out: Final Backscatter): 99%
activity at 8 µM ([1]; MG1655, complex medium, 8 µM, read-out: Growth rate): 105%
activity at 80 µM ([1]; MG1655, complex medium, 80 µM, read-out: Final Backscatter): 97.4%
activity at 80 µM ([1]; MG1655, complex medium, 80 µM, read-out: Growth rate): 109%
activity at 800 µM ([1]; MG1655, complex medium, 800 µM, read-out: Final Backscatter): 108%
activity at 800 µM ([1]; MG1655, complex medium, 800 µM, read-out: Growth rate): 94.7%
activity at 8 µM ([1]; MG1655, minimal medium, 8 µM, read-out: Final Backscatter): 100%
activity at 8 µM ([1]; MG1655, minimal medium, 8 µM, read-out: Growth rate): 97.5%
activity at 80 µM ([1]; MG1655, minimal medium, 80 µM, read-out: Final Backscatter): 95.1%
activity at 80 µM ([1]; MG1655, minimal medium, 80 µM, read-out: Growth rate): 104%
activity at 800 µM ([1]; MG1655, minimal medium, 800 µM, read-out: Final Backscatter): 103%
activity at 800 µM ([1]; MG1655, minimal medium, 800 µM, read-out: Growth rate): 107%
Lag Phase ([1]; complex medium, 8 µM): 102,4%
Lag Phase ([1]; complex medium, 80 µM): 102,4%
Lag Phase ([1]; complex medium, 800 µM): 101,2%
Lag Phase ([1]; minimal medium, 8 µM): 99,1%
Lag Phase ([1]; minimal medium, 80 µM): 101,8%
Lag Phase ([1]; minimal medium, 800 µM): 97,8%

Reference: paper PMC4893628, “Chalcone-based Selective Inhibitors of a C4 Plant Key Enzyme as Novel Potential Herbicides” (Scientific Reports, 2016)
